Data reported in patent publication US10106834B2, “Methods of diagnosing and treating B cell acute lymphoblastic leukemia” (The General Hospital Corporation, priority 2013, dated 2018).

Tested on: integrin α4β1 (VLA-4) on WT and IkE5Δ/Δ pre-B cells
Experiment: Adhesion of adherent pre-B cells to fibronectin-coated plates with peptide blocking
Type: cell-based, mouse
Settings: 400 μg/ml peptide
Experimental: Adhesion to Integrin Ligands and In Vitro FAK Inhibition Assay. Adhesion assay were performed in non-TC treated plates (BD). The plates were coated with 10 ug/ml fibronectin (FN), collagen (Col.) (Invitrogen) or BSA alone overnight at 4° C. After blocking the plates with 2% BSA for 1 h, equal number of cells were plated and incubated for the indicated time points. At the end of the assay, unbound and bound cells were harvested and enumerated. Percent adhesion was calculated by taking ratio of bound cells over total cells used in each assay.
For peptide mediated blocking of adhesion^55, equal number of cells were pretreated for 45 minutes with either 400 μg/ml G-R-G-D-S-P (SEQ ID NO:1) or the control peptide G-R-G-E-S (SEQ ID NO:2) (American Peptide Company) and plated on FN-coated TC dishes. Cells were enumerated for calculation of percent adhesion and percent inhibition.

Substance: G-R-G-D-S-P [RGD]
- binding of pre-B cells to fibronectin: significantly inhibited
